Structures can show the parent of a compound that is named as a salt.
Assays:
[1] = Precipitation studies with sertraline base in 0.1N HCl and phosphate buffered saline pH 5.8 (Example 4)
Procedure: Solution (a) is a simulated gastric fluid, and solution (b) is a simulated intestinal fluid.
PEG400 is miscible with aqueous media, while Capmul®-MCM and safflower oil are not. One milliliter of the test solution was added to 10 mL of (a) 0.1N HCl solution and (b) phosphate buffered saline (PBS) pH 5.8 and was stirred vigorously.
Mobile phase: per liter of mobile phase: 270 mL of tetrahydrofuran, 230 mL of methanol and 400 mL of buffer. The buffer consisted of 25 mM triethylamine phosphate. It was prepared by adding 1.7 mL of phosphoric acid and 3.5 mL of tirethylamine to 1 liter of water.

[2] = Dilution of PEG-400 or polysorbate-80 solution of sertraline base into 0.9% NaCl (Example 3); type: physicochemical
Procedure: One ml of this test solution was added to 15 ml normal saline (0.9% NaCl, pH 4.2), and was stirred vigorously.

[3] = Equilibrium solubility of sertraline base and hydrochloride in selected vehicles (Table 4-4); type: physicochemical; conditions: vehicle Miglyol 810
Excerpt: Water-immiscible vehicles do have this capacity.

physchem = conditions: simulated gastric fluid
[4] = Chloride-induced gelling of sertraline salt solutions; type: physicochemical
[5] = human, in vivo
[6] = dosed as Zoloft tablets; cited from earlier work
clinical = conditions: human, in vivo, po
[7] = Human crossover pharmacokinetics of 200 mg sertraline delivered to various portions of the gastrointestinal tract (Example 1); type: in vivo; conditions: Group A
Procedure: Dosing was via (1) oral tablets, or (2) infusion of a solution through a nasoenteric tube into the stomach, duodenum, or ileocecal region of the small intestine, or (3) infusion into the transverse colon via anal intubation.
The infusions were administered as a 2 mg/ml solution at a rate of 20 ml/min for 5 min.
Analysis was carried out by capillary gas chromatography with electron capture detection. […] Tmax is the time at which Cmax is achieved.

[8] = in water; cited from earlier work

Compound: CN[C@H]1CC[C@@H](c2ccc(Cl)c(Cl)c2)c2ccccc21 [Free base, sertraline free base]
- Concentration of sertraline in aqueous layer ([1]; Capmul MCM 50 mgA/mL, 1 mL into 10 mL phosphate buffered saline pH 5.8, 120 minutes): 0.16 mgA/mL
- Concentration of sertraline in aqueous layer ([1]; Safflower oil 50 mgA/mL, 1 mL into 10 mL 0.1 N HCl, 120 minutes): 0.48 mgA/mL
- Concentration of sertraline in aqueous layer ([1]; Safflower oil 50 mgA/mL, 1 mL into 10 mL phosphate buffered saline pH 5.8, 120 minutes): 0.19 mgA/mL
- Precipitation of sertraline ([1]; solution in safflower oil added to phosphate buffered saline): little or no precipitation
- Observed Concentration after Dilution in Saline after 2 hr ([2]; vehicle Polysorbate-80, 50 mgA/ml in vehicle, 1 ml into 15 ml 0.9% NaCl): 3.1 mgA/ml
- Equilibrium solubility in Miglyol 810 [3]: >50 mgA/ml

Compound: CN[C@H]1CC[C@@H](c2ccc(Cl)c(Cl)c2)c2ccccc21 [Hydrochloride, sertraline hydrochloride]
- solubility (physchem): ~3000 µg/mL
- Equilibrium solubility in Miglyol 810 ([3]; hydrochloride): greater than 0.1 mgA/ml

Compound: CN[C@H]1CC[C@@H](c2ccc(Cl)c(Cl)c2)c2ccccc21 [Lactate, sertraline lactate]
- State of saturated solution at physiological chloride concentrations [4]: thick pasty solid which does not flow

Compound: CN[C@H]1CC[C@@H](c2ccc(Cl)c(Cl)c2)c2ccccc21 [sertraline]
- Intrinsic absorption rate constant (ARC) [5]: greater than 0.025 min^−1
- Absolute oral bioavailability [6]: 54%
- Tmax (clinical): < 1.5 h
- AUCO-LAST ([7]; Ileocecal Infusion of solution): 727.1 ng·h/mL
- AUCO-LAST ([7]; Oral Tablet (two 100 mg Zoloft tablets)): 1174.5 ng·h/mL
- AUCO-LAST ([7]; Stomach Infusion of solution): 923.1 ng·h/mL
- Precipitation of sertraline ([1]; PEG 400 solution added into either 0.1 N HCl or phosphate buffered saline): precipitation of a large proportion of sertraline
- Portion of sertraline remaining in solution ([1]; vehicle Capmul-MCM, 0.1 N HCl or phosphate buffered saline): > 95 % of added amount
- Precipitation upon addition to a NaCl solution ([2]; PEG400 solution of sertraline): a portion of the sertraline precipitates
- Precipitation upon addition to a NaCl solution ([2]; Polysorbate-80 solution of sertraline): no precipitation occurs

Compound: sertraline acetate
- State of saturated solution at physiological chloride concentrations [4]: thick pasty solid which does not flow

Compound: vitamin E
- Aqueous solubility [8]: practically insoluble in water

Reference: patent US20030133974A1 (priority 1997, published 2003)
